Measured values reported in PubChem BioAssay AID248 (DTP/NCI, 2004).
Several values for one entry are separate records, joined by “and”; a condition that tells them apart may be missing. Identical values can stand only once. Toxic doses and inconclusive results are not listed. Rule as the data show it: active = T/C of 150% or more; inactive = T/C below 125%.

Test system: L1210 leukemia ip in BDF1 mice, survival T/C
Assay: NCI In Vivo Anticancer Drug Screen. Data for tumor model L1210 Leukemia (intraperitoneal) in B6D2F1 (BDF1) mice
Details: endpoint: mean survival time, higher = longer survival
Outline: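 Ratio derived from survival: compound-dosed mice over vehicle-dosed mice, all bearing a transplantable tumor.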

[1] = dose: 100.0 mg/kg/injection, schedule: Q04DX003 (ip), vehicle: Klucel (hydroxypropylcellulose) (HPC)
[2] = dose: 200.0 mg/kg/injection, schedule: Q04DX003 (ip), vehicle: Klucel (hydroxypropylcellulose) (HPC)
[3] = dose: 400.0 mg/kg/injection, schedule: Q04DX003 (ip), vehicle: Klucel (hydroxypropylcellulose) (HPC)
[4] = dose: 100.0 mg/kg/injection, schedule: Q01DX009 (ip), vehicle: saline with Tween-80
[5] = dose: 100.0 mg/kg/injection, schedule: Q04DX003 (ip), vehicle: saline with Tween-80
[6] = dose: 200.0 mg/kg/injection, schedule: Q01DX009 (ip), vehicle: saline with Tween-80
[7] = dose: 200.0 mg/kg/injection, schedule: Q04DX003 (ip), vehicle: saline with Tween-80
[8] = dose: 400.0 mg/kg/injection, schedule: Q04DX003 (ip), vehicle: saline with Tween-80
[9] = dose: 50.0 mg/kg/injection, schedule: Q01DX001 (ip), vehicle: saline
[10] = dose: 100.0 mg/kg/injection, schedule: Q01DX001 (ip), vehicle: saline
[11] = dose: 200.0 mg/kg/injection, schedule: Q01DX001 (ip), vehicle: saline
[12] = dose: 400.0 mg/kg/injection, schedule: Q01DX001 (ip), vehicle: saline
[13] = dose: 100.0 mg/kg/injection, schedule: Q04DX003 (ip), vehicle: saline
[14] = dose: 200.0 mg/kg/injection, schedule: Q04DX003 (ip), vehicle: saline
[15] = dose: 50.0 mg/kg/injection, schedule: Q01DX009 (ip), vehicle: saline with Tween-80
[16] = dose: 100.0 mg/kg/injection, schedule: Q01DX009 (ip), vehicle: Klucel (hydroxypropylcellulose) (HPC)
[17] = dose: 100.0 mg/kg/injection, schedule: Q04DX002 (ip), vehicle: Klucel (hydroxypropylcellulose) (HPC)
[18] = dose: 50.0 mg/kg/injection, schedule: Q01DX009 (ip), vehicle: Klucel (hydroxypropylcellulose) (HPC)
[19] = dose: 200.0 mg/kg/injection, schedule: Q01DX009 (ip), vehicle: Klucel (hydroxypropylcellulose) (HPC)

Measured: T/C

O=c1c2ccccc2[nH]c2ccccc12
inactive: dose: 50.0 mg/kg/injection, schedule: Q04DX003 (ip), vehicle: Klucel (hydroxypropylcellulose) (HPC) 103 % of control | dose: 100.0 mg/kg/injection, schedule: Q01DX001 (ip), vehicle: Klucel (hydroxypropylcellulose) (HPC) 95 % of control | dose: 100.0 mg/kg/injection, schedule: Q01DX Z (ip), vehicle: carboxymethylcellulose (CMC) 96 % of control | [1] 101 % of control | dose: 200.0 mg/kg/injection, schedule: Q01DX001 (ip), vehicle: Klucel (hydroxypropylcellulose) (HPC) 98 % of control | dose: 200.0 mg/kg/injection, schedule: Q01DX Z (ip), vehicle: carboxymethylcellulose (CMC) 103 % of control | [2] 106 % of control and 97 % of control | dose: 400.0 mg/kg/injection, schedule: Q01DX001 (ip), vehicle: Klucel (hydroxypropylcellulose) (HPC) 95 % of control | dose: 400.0 mg/kg/injection, schedule: Q01DX Z (ip), vehicle: carboxymethylcellulose (CMC) 105 % of control | [3] 103 % of control and 96 % of control

N#CCN1CCCCCC1
inactive: dose: 5.0 mg/kg/injection, schedule: Q01DX009 (ip), vehicle: Klucel (hydroxypropylcellulose) (HPC) 102 % of control | dose: 10.0 mg/kg/injection, schedule: Q01DX009 (ip), vehicle: Klucel (hydroxypropylcellulose) (HPC) 98 % of control | dose: 10.0 mg/kg/injection, schedule: Q04DX003 (ip), vehicle: Klucel (hydroxypropylcellulose) (HPC) 98 % of control | dose: 20.0 mg/kg/injection, schedule: Q04DX003 (ip), vehicle: Klucel (hydroxypropylcellulose) (HPC) 91 % of control

COc1cc(/C=N/NC(=O)c2ccncc2)cc(OC)c1OC
inactive: [4] 112 % of control | [5] 111 % of control | [6] 101 % of control | [7] 118 % of control | dose: 400.0 mg/kg/injection, schedule: Q01DX009 (ip), vehicle: saline with Tween-80 98 % of control | [8] 100 % of control

Nc1nc(N)nc(CCN2CCCCC2)n1
inactive: dose: 6.25 mg/kg/injection, schedule: Q01DX001 (ip), vehicle: saline with Tween-80 94 % of control | dose: 12.5 mg/kg/injection, schedule: Q01DX001 (ip), vehicle: saline with Tween-80 102 % of control | dose: 25.0 mg/kg/injection, schedule: Q01DX001 (ip), vehicle: saline with Tween-80 102 % of control

Cc1ccccc1C=O
inactive: [9] 97 % of control | [10] 94 % of control | [11] 94 % of control | [12] 94 % of control

CC(=O)NS(=O)(=O)c1cc(N)ccc1S(=O)(=O)c1ccc(N)cc1
inactive: [10] 94 % of control | [11] 92 % of control | [12] 92 % of control

CC(N)(C(=O)O)c1ccccc1 (stereo not given)
inactive: dose: 50.0 mg/kg/injection, schedule: Q04DX003 (ip), vehicle: saline 96 % of control | [13] 89 % of control | [14] 102 % of control

Cc1cc(N(CCCOS(C)(=O)=O)CCCOS(C)(=O)=O)ccc1C=Nc1ccc(-c2nc(Cc3ccccc3)sc2C)cc1
inactive: [4] 96 % of control | [6] 98 % of control

O=C1C2=C(CCCC2)C(=O)c2ccccc21
inactive: [9] 93 % of control | [10] 100 % of control | [11] 96 % of control | [12] 102 % of control

CC(=O)Nc1ccc(NC(=O)Nc2ccc(C)cc2)cc1
inactive: [15] 90 % of control | [4] 90 % of control | [6] 90 % of control

Cc1ccc(/C=C2\CC(C)(C)c3ccccc3C2=O)cc1
inactive: [7] 100 % of control | [8] 93 % of control

CSc1ccc(NC(=O)Nc2cc(C)c(C)cc2C)cc1
inactive: dose: 100.0 mg/kg/injection, schedule: Q01DX009 (ip), vehicle: other 86 % of control | dose: 200.0 mg/kg/injection, schedule: Q01DX009 (ip), vehicle: other 93 % of control and 90 % of control | dose: 400.0 mg/kg/injection, schedule: Q01DX009 (ip), vehicle: other 93 % of control and 106 % of control

CN(C)C=Nc1ccc(C(=O)OCCN(C)C)cc1
inactive: [15] 115 % of control | [4] 97 % of control | [6] 106 % of control

O=C(NCCCl)Nc1ccc2c3c(cccc13)CC2
inactive: [16] 87 % of control | [2] 95 % of control

O=C(CC(C(=O)c1ccccc1)N1CC1)c1ccccc1 (stereo not given)
inactive: dose: 50.0 mg/kg/injection, schedule: Q01DX009 (ip), vehicle: saline sonified 91 % of control | dose: 50.0 mg/kg/injection, schedule: Q04DX003 (ip), vehicle: saline sonified 96 % of control | dose: 100.0 mg/kg/injection, schedule: Q01DX009 (ip), vehicle: saline sonified 94 % of control | dose: 100.0 mg/kg/injection, schedule: Q04DX003 (ip), vehicle: saline sonified 92 % of control | dose: 200.0 mg/kg/injection, schedule: Q04DX003 (ip), vehicle: saline sonified 97 % of control

NNC(=O)CNc1ccccc1Br
inactive: dose: 50.0 mg/kg/injection, schedule: Q04DX002 (ip), vehicle: Klucel (hydroxypropylcellulose) (HPC) 106 % of control | [17] 105 % of control and 110 % of control

NC(=O)C1C(=O)OC2(CCCC2)C1c1ccccc1 (stereo not given)
inactive: [1] 101 % of control | [2] 93 % of control | [3] 97 % of control

CC1(C)C(N2CCCC2)N(C(=O)c2ccccc2)SC12c1ccccc1-c1ccccc12 (stereo not given)
inactive: [17] 102 % of control | dose: 200.0 mg/kg/injection, schedule: Q04DX002 (ip), vehicle: Klucel (hydroxypropylcellulose) (HPC) 105 % of control | dose: 400.0 mg/kg/injection, schedule: Q04DX002 (ip), vehicle: Klucel (hydroxypropylcellulose) (HPC) 98 % of control

Cc1ccc(S(=O)(=O)N2c3ccccc3-c3ccccc3C(=O)C2Br)cc1 (stereo not given)
inactive: dose: 100.0 mg/kg/injection, schedule: Q01DX001 (ip), vehicle: carboxymethylcellulose (CMC) 105 % of control | dose: 200.0 mg/kg/injection, schedule: Q01DX001 (ip), vehicle: carboxymethylcellulose (CMC) 105 % of control | dose: 400.0 mg/kg/injection, schedule: Q01DX001 (ip), vehicle: carboxymethylcellulose (CMC) 124 % of control

CN1C(=O)N(C)C(=O)C(Cc2ccccc2)(Cc2ccccc2)C1=O
inactive: dose: 10.0 mg/kg/injection, schedule: Q01DX001 (ip), vehicle: saline 109 % of control | dose: 20.0 mg/kg/injection, schedule: Q01DX001 (ip), vehicle: saline 105 % of control

Cn1c[n+](-c2ccccc2)c([S-])n1
inactive: [10] 101 % of control | [11] 101 % of control | [12] 100 % of control

COc1cc(/C=C2\C(=O)C=C(C)CC2(C)C)ccc1O
inactive: dose: 25.0 mg/kg/injection, schedule: Q04DX003 (ip), vehicle: saline with Tween-80 92 % of control | dose: 50.0 mg/kg/injection, schedule: Q04DX003 (ip), vehicle: saline with Tween-80 89 % of control | [5] 89 % of control | [7] 90 % of control

CSc1ccc(N=Cc2ccc3c(c2)OCO3)cc1
inactive: [18] 103 % of control | [16] 97 % of control | [1] 102 % of control | [19] 99 % of control | [2] 107 % of control | [3] 94 % of control

O=C(OCCO)c1cc(OCCO)nc(Cl)n1
inactive: [18] 100 % of control | [16] 100 % of control | [19] 89 % of control

NC(=O)NN=C1COC(c2ccccc2)OC1 (stereo not given)
inactive: dose: 50.0 mg/kg/injection, schedule: Q01DX009 (ip), vehicle: saline 98 % of control | dose: 100.0 mg/kg/injection, schedule: Q01DX009 (ip), vehicle: saline 89 % of control | [13] 101 % of control | [14] 93 % of control
